Experimental data reported in US7759373B2, “Large conductance calcium-activated K channel opener” (Mitsubishi Tanabe Pharma Corporation, priority 2001, dated 2010).
pEC50: −log10 of the molar value. Where a name gives a salt, the structure may show the parent alone.

Assays:
[1] = tested on: rhythmic bladder contractions induced by substance P; experiment: Inhibitory effect on the rhythmic bladder contractions induced by substance P in anesthetized rats; assay type: in vivo, rat; settings: time during which frequency of rhythmic contraction was completely inhibited, 0.25 mg/kg of the compound, substance P infusion
Outline: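 Urethane-anesthetized female Sprague-Dawley rats with rhythmic bladder contractions driven by i.v. substance P (0.33 μg/kg/min). Compound given i.v. in saline/0.5% Tween 80 once contractions stable 15 min; intravesical pressure monitored, duration of 100% inhibition ranked A ≥20, B ≥10, C <10 min.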

[2] = tested on: isolated rabbit urinary bladder; experiment: Relaxation effect on potassium-induced contraction of isolated rabbit urinary bladder; assay type: cell-based; settings: Oryctolagus cuniculus; 50% relaxation concentration; high-K+ (30 mM) pre-contracted rabbit bladder strips; relaxation as percentage of the maximum produced by 0.1 mM papaverine; read-out: EC50 value range
Outline: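 Mucosa-free longitudinal bladder strips from male NZW rabbits, held at 37 °C in Krebs solution gassed with 95% O2/5% CO2, were precontracted with 30 mM K+. Compounds were added cumulatively (10^−8–10^−4 M), with isometric relaxation expressed relative to 0.1 mM papaverine maximum. EC50 was derived and reported as rank ranges.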

| Compound | melting point | 100% inhibition time range [1] | pEC50 [2] |
| --- | --- | --- | --- |
| CCCc1nc(-c2cc3ccccc3o2)[nH]c1-c1ccccc1 (as salt: HCl) [Preparation example 38] | 185 to 188 °C | – | – |
| CCc1nc(-c2cccc(Cl)c2)[nH]c1-c1cccnc1 (as salt: HCl) [Preparation example 13] | 223 to 224 °C | – | – |
| N#Cc1ccc(-c2ncc(-c3ccccc3)[nH]2)cc1 (as salt: HCl) [Preparation example 42] | > 300 °C | – | – |
| CCc1nc(-c2ccccc2Cl)[nH]c1-c1cccnc1 (as salt: HCl) [Preparation example 12] | 221 to 223 °C | – | – |
| CCCc1nc(C2CCC(=O)N2)[nH]c1-c1cccs1 (stereo not shown) (as salt: HCl) [Preparation example 4] | 234 to 237 °C | – | – |
| Fc1ccc(-c2nc(C3CCCCC3)c(-c3ccsc3)[nH]2)cc1 [Preparation example 45] | 171 to 173 °C | – | – |
| CCc1nc(-c2ccc(C)nc2)[nH]c1-c1cncs1 (as salt: HCl) [Preparation example 83] | 247 to 251 °C | – | – |
| Clc1ccc(-c2nc(Cc3nnn[nH]3)c(-c3ccccc3)s2)cc1 [Preparation Example 632, 5-[2-(4-chlorophenyl)-5-phenyl-thiazol-4-ylmethyl]tetrazole] | 213 to 214 °C | – | – |
| CCOC(=O)Cc1nc(-c2ccc(N(C)C)cc2)oc1-c1ccc(Cl)s1 [Preparation Example 384] | 118 to 119 °C | – | – |
| CCc1nc(-c2ccc(F)cc2)[nH]c1-c1ccc(C)nc1 (as salt: HCl) [Preparation example 47] | 260 to 262 °C | – | – |
| O=CCCNc1[nH]c(-c2ccc(F)cc2)nc1-c1ccccc1 [Preparation example 111, 5-formylethylamino-2-(4-fluorophenyl)-4-phenylimidazole] | 201 to 202 °C | – | – |
| CCc1nc(-c2ccc(C#N)cc2)[nH]c1-c1ccccc1 (as salt: HCl) [Preparation example 27] | 285 to 288 °C | – | – |
| CCc1nc(-c2ccc(F)cc2)[nH]c1Br (as salt: hydrochloride) [Preparation example 77, 5-bromo-4-ethyl-2-(4-fluorophenyl)-imidazole] | 219 to 221 °C (dec.) | – | – |
| O=C(O)Cc1nc(-c2ccc(Cl)cc2)oc1-c1cccs1 [Preparation Example 192] | 214 to 215 °C | – | – |
| COCc1nc(-c2ccc(C)nc2)[nH]c1-c1cccnc1 (as salt: HCl) [Preparation example 127] | 251 to 255 °C | – | – |
| CCOC(=O)c1cc(-c2nc(CC)c(-c3cccnc3)[nH]2)cs1 [Preparation example 11] | 187 to 189 °C | – | – |
| Fc1ccc(-c2ncc(-c3cccnc3)[nH]2)cc1 (as salt: HCl) [Preparation example 22] | 192 to 195 °C | – | – |
| CCc1nc(-c2ccc(F)cc2)[nH]c1-c1cncnc1 (as salt: HCl) [Preparation example 85] | 287 to 289 °C | – | – |
| CCOC(=O)Cc1nc(-c2ccc(F)cc2)oc1-c1cc(C)cs1 [Preparation Example 163] | 138 to 139 °C | – | – |
| CCCc1nc(-c2ccc(F)cc2)[nH]c1-c1ccc([N+](=O)[O-])cc1 (as salt: HCl) [Preparation example 91] | 220 to 222 °C | – | – |
| CCCc1nc(-c2ccc(C#N)cc2)[nH]c1-c1cccs1 (as salt: HCl) [Preparation example 8] | 251 to 254 °C | – | – |
| CCOC(=O)c1nc(-c2ccc(F)cc2)[nH]c1CC [Preparation example 69, ethyl 5-ethyl-2-(4-fluorophenyl)imidazol-4-carboxylate] | 197 to 198 °C | – | – |
| OCCc1nc(-c2ccc(F)cc2)oc1-c1ccsc1 [Preparation Example 619] | 110 to 111 °C | – | – |
| CCOC(=O)Cc1nc(-c2ccc3ccccc3n2)oc1-c1ccsc1 [Preparation Example 428] | 168.5 to 169.5 °C | – | – |
| CCCc1c[nH]c(-c2ccc(F)cc2)n1 [Preparation example 76] | 168 to 170 °C | – | – |
| CCCc1nc(-c2cccc(F)c2)[nH]c1-c1ccccc1 (as salt: HCl) [Preparation example 30] | 192 to 193 °C | – | – |
| Cc1ccc(-c2ncc(-c3cccnc3)[nH]2)cn1 (as salt: HCl) [Preparation example 26] | 269 to 273 °C | – | – |

| Compound | melting point | 100% inhibition time range [1] | pEC50 [2] |
| --- | --- | --- | --- |
| CCc1nc(-c2ccc(F)cc2)[nH]c1-c1ccccc1OC (as salt: HCl) [Preparation example 84] | 200 to 203 °C (dec.) | – | – |
| CCc1nc(-c2ccc(F)cc2)[nH]c1-c1cnccn1 (as salt: HCl) [Preparation example 49] | 241 to 243 °C | – | – |
| N#Cc1ccc(-c2ncc(-c3cccnc3)[nH]2)cc1 (as salt: HCl) [Preparation example 23] | 325 to 328 °C | – | – |
| CCCc1nc(-c2cccc(Cl)c2)[nH]c1-c1ccccc1 (as salt: HCl) [Preparation example 29] | 202 to 204 °C | – | – |
| COc1ccccc1-c1c[nH]c(-c2ccc(F)cc2)n1 (as salt: hydrochloride) [Preparation example 66, 2-(4-fluorophenyl)-4-(2-methoxyphenyl)imidazole] | 245 to 248 °C | – | – |
| Cc1ccc(-c2nc(CC(=O)O)c(-c3cccs3)o2)s1 [Preparation Example 268] | – | C (A≧20>B≧10>C (minute)) | ≥ 6.30 |
| O=C(O)Cc1nc(-c2ccc(F)cc2)oc1-c1ccc2occc2c1 [Preparation Example 285] | – | B (A≧20>B≧10>C (minute)) | 5.52 to 6.00 |
| Cl.N#CCCc1[nH]c(-c2ccc(F)cc2)nc1-c1ccccc1O [Preparation Example 350, 5-(2-cyanoethyl)-2-(4-fluorophenyl)-4-(2-hydroxyphenyl)-imidazole hydrochloride] | – | B (A≧20>B≧10>C (minute)) | 5.52 to 6.00 |
| CCc1[nH]c(-c2ccsc2C(C)O)nc1-c1cccnc1.Cl.Cl (stereo not shown) [Preparation Example 486, 2-[2-(1-hydroxyethyl)thiophen-3-yl]-5-ethyl-4-(3-pyridyl)-imidazole dihydrochloride] | – | B (A≧20>B≧10>C (minute)) | 5.52 to 6.00 |
| Cc1csc(-c2nc(CC(=O)O)c(-c3ccc(Cl)s3)o2)c1 [Preparation Example 478] | – | B (A≧20>B≧10>C (minute)) | ≥ 6.30 |
| CSc1ccc(-c2nc(CC(=O)O)c(-c3ccc(Cl)s3)o2)cc1 [Preparation Example 281] | – | C (A≧20>B≧10>C (minute)) | ≥ 6.30 |
| CCc1c(-c2cccnc2)nc(-c2ccc(F)cc2)n1CC [Preparation example 104] | – | A (A≧20>B≧10>C (minute)) | 6.00 to 6.30 |
| CN(C)c1ncc(-c2nc(CC(=O)O)c(-c3ccc(Cl)cc3)o2)cn1 [Preparation Example 473] | – | A (A≧20>B≧10>C (minute)) | 6.00 to 6.30 |
| CN(C)c1ccc(-c2nc(-c3ccc(Cl)s3)c(CC(=O)O)o2)cn1 [Preparation Example 504] | – | C (A≧20>B≧10>C (minute)) | 5.52 to 6.00 |
| O=C(O)Cc1nc(-c2ccc(F)cc2)oc1-c1ccc(Cl)c(F)c1 [Preparation Example 253] | – | A (A≧20>B≧10>C (minute)) | 6.00 to 6.30 |
| O=C(O)Cc1nc(-c2cc3ccccc3s2)oc1-c1ccc(Cl)cc1 [Preparation Example 454] | – | A (A≧20>B≧10>C (minute)) | 5.52 to 6.00 |
| COc1ccc(-c2nc(-c3cccs3)c(CC(=O)O)s2)cc1 [Preparation Example 578] | – | B (A≧20>B≧10>C (minute)) | 6.00 to 6.30 |
| CCCc1nc(-c2ccc(F)cc2)[nH]c1-c1ccccc1 [Preparation example 88] | – | B (A≧20>B≧10>C (minute)) | 5.52 to 6.00 |
| CCCc1nc(-c2ccc(F)cc2)[nH]c1-c1ccc(N(C)C)cc1 [Preparation example 90] | – | B (A≧20>B≧10>C (minute)) | 5.52 to 6.00 |
| O=C(O)Cc1nc(-c2ccc3occc3c2)oc1-c1csc(Cl)c1 [Preparation Example 287] | – | B (A≧20>B≧10>C (minute)) | ≥ 6.30 |
| O=C(O)Cc1nc(-c2ccc3occc3c2)oc1-c1cccs1 [Preparation Example 269] | – | B (A≧20>B≧10>C (minute)) | ≥ 6.30 |
| CCNC(=O)Cc1nc(-c2ccc(F)cc2)oc1-c1ccsc1 [Preparation Example 616] | – | B (A≧20>B≧10>C (minute)) | 5.52 to 6.00 |
| CC(C)c1ccc(-c2nc(CC(=O)O)c(-c3ccc(Cl)s3)o2)cc1 [Preparation Example 273] | – | C (A≧20>B≧10>C (minute)) | 5.52 to 6.00 |
| CN(C)c1ncc(-c2nc(-c3ccc(Cl)s3)c(CC(=O)O)o2)cn1 [Preparation Example 512] | – | B (A≧20>B≧10>C (minute)) | 6.00 to 6.30 |
| Cc1cc(-c2nc(CC(=O)O)c(-c3ccc(Cl)s3)o2)on1 [Preparation Example 278] | – | B (A≧20>B≧10>C (minute)) | 6.00 to 6.30 |
| O=C([O-])Cc1oc(-c2ccc(F)cc2)nc1-c1ccc(Cl)s1.[Na+] [Preparation Example 487, 4-(5-chloro-thiophen-2-yl)-2-(4-fluorophenyl)oxazol-5-yl acetic acid sodium salt] | – | C (A≧20>B≧10>C (minute)) | 6.00 to 6.30 |
| O=C(O)Cc1nc(-c2ccc(F)cc2)oc1-c1ccc(C(F)(F)F)cc1 [Preparation Example 244] | – | B (A≧20>B≧10>C (minute)) | 5.52 to 6.00 |
